In US7323481B2, “Thiazolidinediones alone or in combination with other therapeutic agents for inhibiting or reducing tumour growth” (Hoffmann-La Roche Inc., priority 2001, dated 2008):

Columns and labels:
PPAR gamma = biological target: T1, PPAR gamma (Homo sapiens, UniProt P37231); assay: PPAR gamma stimulating activity (PPAR-mediated gene expression), alone and with 9-cis retinoic acid; assay type: cell-based; settings: DMSO-treated cells = 1
T1 sequence (P37231 1-505): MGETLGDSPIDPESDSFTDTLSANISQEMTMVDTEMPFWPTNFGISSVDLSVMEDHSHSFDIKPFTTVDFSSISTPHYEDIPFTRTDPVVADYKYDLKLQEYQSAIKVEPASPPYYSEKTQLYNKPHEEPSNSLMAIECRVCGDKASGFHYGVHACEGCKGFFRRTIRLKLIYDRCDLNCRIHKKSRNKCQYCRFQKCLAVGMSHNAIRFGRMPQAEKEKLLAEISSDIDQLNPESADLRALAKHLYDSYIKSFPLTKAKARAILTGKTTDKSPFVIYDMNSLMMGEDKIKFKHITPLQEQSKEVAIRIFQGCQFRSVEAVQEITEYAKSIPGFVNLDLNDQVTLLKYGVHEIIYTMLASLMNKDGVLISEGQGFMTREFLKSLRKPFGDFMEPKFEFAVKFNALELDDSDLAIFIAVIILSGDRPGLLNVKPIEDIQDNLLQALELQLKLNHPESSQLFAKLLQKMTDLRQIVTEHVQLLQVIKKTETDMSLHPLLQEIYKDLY
Method: (§1) Female SCID beige mice were inoculated subcutaneously with 1×10^6 CX-1 human colon carcinoma cells. For 42 days 10 animals per group were orally treated with troglitazone, BM 13.1258 or BM 15.2054 (suspension in 0.5% methylcellulose). The development of tumor volume (measured in mm^3) was determined on day 45. Furthermore, following autopsy the lungs were histologically inspected for micrometastases. Inhibition of tumor growth and inhibition of number of pulmonal metastases were calculated as 100 minus tumor volume or number of metastases of the test group divided by that of the vehicle group expressed as a percentage. PPAR gamma stimulating activity of the compounds alone and in combination with the RXR specific agonist 9-cis retinoic acid were determined in accordance with a known method (Furnsinn, C., et al., Br. J. Pharmacol. 128 (1999) 1141-1148). The relative activation of PPAR-mediated gene expression is given as x-fold stimulation compared to DMSO-treated cells (activation=1).

[1] = test system: human cancer cells (breast cancer, colon cancer, prostate cancer); assay: Inhibition of cell proliferation in human cancer cells; assay type: cell-based; settings: human cancer cells of various tissue origins, e.g. breast, colon and prostate cancer
[2] = test system: CX-1 human colon carcinoma cells; assay: CX-1 human colon carcinoma xenograft in SCID beige mice: tumor volume and pulmonal micrometastases; assay type: in vivo; settings: for Inhibition relative to vehicle group (tumor volume): day 45; for Mean tumor volume: measured on day 45; for Number of metastases: lung micrometastases per group, histology after autopsy; for Effect on metastatic load: human xenograft models
Method: as §1

[3] = thiazolidinedione 10^−6 M in combination with 9-cis RA 10^−6 M
[4] = thiazolidinedione 10^−6 M, no 9-cis RA
[5] = thiazolidinedione 10^−7 M in combination with 9-cis RA 10^−6 M
[6] = thiazolidinedione 10^−7 M, no 9-cis RA

Row | Relative activation of PPAR-mediated gene expression (PPAR gamma; [3]) [x-fold] | Relative activation of PPAR-mediated gene expression (PPAR gamma; [4]) [x-fold] | Relative activation of PPAR-mediated gene expression (PPAR gamma; [5]) [x-fold] | Relative activation of PPAR-mediated gene expression (PPAR gamma; [6]) [x-fold] | SMILES | Inhibition of cell proliferation [1] | Inhibition relative to vehicle group (tumor volume) ([2]; 50 mg/kg oral for 42 days) [%] | Mean tumor volume ([2]; 50 mg/kg oral for 42 days) [mm^3] | Effect on metastatic load [2] | also measured
1 | 18.5 | 3.5 | 15.6 | 4.3 | Cc1oc(-c2cccs2)nc1CCOc1ccc(CC2SC(=O)NC2=O)c2sccc12 (stereo not drawn) [BM 15.2054, 5-{4-[2-(5-Methyl-2-(thien-2-yl)oxazol-4-yl)-ethoxy]-benzo[b]thiophen-7-ylmethyl}-thiazolidine-2,4-dione] | inhibit cell proliferation | 28 | 719 | reduce the metastatic load | Inhibition relative to vehicle group (number of metastases) ([2]; 10 mg/kg oral for 42 days): 34%; Inhibition relative to vehicle group (tumor volume) ([2]; 10 mg/kg oral for 42 days): 30%; Mean tumor volume ([2]; 10 mg/kg oral for 42 days): 702 mm^3; Number of metastases ([2]; 10 mg/kg oral for 42 days): 216; Inhibition relative to vehicle group (number of metastases) ([2]; 50 mg/kg oral for 42 days): 32%; Number of metastases ([2]; 50 mg/kg oral for 42 days): 223; Number of lung metastases compared to the vehicle group ([2]; Table 2): significantly (p<0.05) reduced
2 |  |  |  |  | CC1=C(/C=C/C(C)=C\C=C\C(C)=C\C(=O)O)C(C)(C)CCC1 [9-cis RA, 9-cis retinoic acid, reference compound] |  |  |  |  | Relative activation of PPAR-mediated gene expression (PPAR gamma; 9-cis RA 10^−6 M, no thiazolidinedione): 4.1 x-fold
3 |  |  |  |  | Cc1c(C)c2c(c(C)c1O)CCC(C)(COc1ccc(CC3SC(=O)NC3=O)cc1)O2 (stereo not drawn) [Troglitazone, troglitazone, reference compound] |  |  |  |  | Inhibition relative to vehicle group (number of metastases) ([2]; 200 mg/kg oral for 42 days): −8%; Inhibition relative to vehicle group (tumor volume) ([2]; 200 mg/kg oral for 42 days): 20%; Mean tumor volume ([2]; 200 mg/kg oral for 42 days): 804 mm^3; Number of metastases ([2]; 200 mg/kg oral for 42 days): 352
4 | 28.0 | 4.0 | 24.4 | 3.7 | Cc1oc(-c2ccccc2)nc1CCOc1ccc(CC2SC(=O)NC2=O)c2sccc12 (stereo not drawn) [BM 13.1258, 5-{4-[2-(5-Methyl-2-phenyloxazol-4-yl) -ethoxy]-benzo[b]thiophen-7-ylmethyl}-thiazolidine-2,4-dione] | inhibit cell proliferation | 40 | 604 | reduce the metastatic load | Anti-tumor effect compared with troglitazone ([2]; SCID beige mice, Table 1): superior to that of troglitazone; Reduction of size of colon carcinoma ([2]; SCID beige mice, Table 1): effective in reducing the size of colon carcinoma
